In patent publication US7812045B2, “Antifungal triazole derivatives” (Daewoong Pharmaceutical Co., Ltd., priority 2005, dated 2010):
Converted amounts (≈) assume the structure as drawn. Read-outs that look alike come from different tables or passages of the source.

Columns and labels:
[1] = test system: Aspergillus fumigatus ATCC MYA-1163; experiment: In vitro assay for antifungal activity (MIC90); format: cell-based; details: RPMI 1640, growth read after 48 hours, duplicate; for MIC90: read-out: MIC90 (concentration at which 90% of the fungi were inhibited compared to the negative control)
Protocol: (§1) Fungal strains to be tested were inoculated onto Sabouraud dextrose agar, YM agar, and potato dextrose agar and cultured at 35° C. for two to three days. Individual single colonies of the yeast fungi selected out of the cultured strains were suspended in 5 ml of 0.85% sterile saline, followed by correction to adjust the absorbance thereof at 530 nm to 0.108. The suspensions were diluted serially by 1:50 and then 1:20 in RPMI 1640 media to prepare liquid inocula ranging in cell count from 1.0×10^3 to 5.0×10^3 CFU/ml. As for filamentous fungi, their spores were suspended in 0.85% sterile saline and the suspensions were corrected with sterile saline to show optical transmittance at 530 nm of 80 to 82%. A dilution of 1:50 was made with RPMI 1640 media to prepare liquid inocula having cell counts from […] to 5×10^4 CFU/ml.
(§2) Antifungal samples were prepared by diluting the compounds of the present inventions in RPMI 1640 media to serial concentrations from 0.0625 to 32 μg/ml. As a vehicle, DMSO was contained in a final concentration of 1% (V/V) in the antifungal samples. 0.1 ml of each of the dilutions in series was added to equal volume of each of the fungal inocula.

[2] = test system: Candida glabrata ATCC 34138; experiment: In vitro assay for antifungal activity (MIC90); format: cell-based; details: duplicate; for MIC90: Nakaseomyces glabratus, ATCC34138, RPMI 1640, growth read after 24 hours, read-out: MIC90 (concentration at which 90% of the fungi were inhibited compared to the negative control)
Protocol: as §1, §2

[3] = test system: Candida albicans ATCC 32033; experiment: In vitro assay for antifungal activity (MIC90); format: cell-based; details: duplicate; for MIC90: ATCC32033, RPMI 1640, growth read after 24 hours, read-out: MIC90 (concentration at which 90% of the fungi were inhibited compared to the negative control)
Protocol: as §1, §2

Candida krusei ATCC 6258 = experiment: In vitro assay for antifungal activity (MIC90); format: cell-based; details: duplicate; for MIC90: Pichia kudriavzevii, ATCC6258, RPMI 1640, growth read after 24 hours, read-out: MIC90 (concentration at which 90% of the fungi were inhibited compared to the negative control)
Protocol: as §1, §2

[4] = test system: Aspergillus niger ATCC 9142; experiment: In vitro assay for antifungal activity (MIC90); format: cell-based; details: duplicate; for MIC90: ATCC9142, RPMI 1640, growth read after 48 hours, read-out: MIC90 (concentration at which 90% of the fungi were inhibited compared to the negative control)
Protocol: as §1, §2

[5] = test system: Cryptococcus neoformans ATCC 4065; experiment: In vitro assay for antifungal activity (MIC90); format: cell-based; details: for MIC90: ATCC4065, RPMI 1640, duplicate, read-out: MIC90 (concentration at which 90% of the fungi were inhibited compared to the negative control)
Protocol: as §1, §2

[6] = test system: Aspergillus terreus ATCC 28301; experiment: In vitro assay for antifungal activity (MIC90); format: cell-based; details: duplicate; for MIC90: ATCC28301, RPMI 1640, growth read after 48 hours, read-out: MIC90 (concentration at which 90% of the fungi were inhibited compared to the negative control)
Protocol: as §1, §2

[7] = test system: Aspergillus flavus ATCC MYA-1004; experiment: In vitro assay for antifungal activity (MIC90); format: cell-based; details: RPMI 1640, growth read after 48 hours, duplicate; for MIC90: read-out: MIC90 (concentration at which 90% of the fungi were inhibited compared to the negative control)
Protocol: as §1, §2

Assay for acute toxicity = format: in vivo; details: mice; oral administration, to a dose of 1000 mg/kg; observed for two weeks; suspension in 25% beta-hydroxypropyl methylcellulose base or polyethylene glycol 400
[8] = test system: Candida albicans (ATCC 36082); experiment: In vivo assay for antifungal activity (survival of infected mice); details: ICR mice infected i.v. with Candida albicans ATCC 36082; for % Survival on Day 21: 20 mg/kg orally once a day for seven days (day 0 to day 6), groups of 10
Protocol: Candida albicans (ATCC 36082) was grown in YM broth on a rotary shaker (200 rpm, 26° C.) for about 12 hours to a concentration of 2.5×10^7 CFU/ml and used to infect ICR mice at a dose of 0.2 ml/head via caudal veins. Suspensions or solutions of the azole compounds in a 25% beta-hydroxypropyl methylcellulose base were orally administered at a dose of 20 mg/kg to respective infected ICR mice in groups of 10, the condition and body weights of the mice were monitored, and autopsies were finally conducted. For a negative control, the vehicle alone was used while fluconazole was administered to a positive control. The mice were inoculated once with the fungal preparation on the day of commencement of the administration. The test materials of interest and the positive control material were orally administered to the inoculated mice once a day for seven days from day 0 to day 6, with the first oral administration made five hours after the fungal inoculation (day 0). The periods of time for which the infected mice lived were counted.
The number of mice which survived the fungal infection for 21 days following the inoculation was represented as % survival for each test group, and the results are given in Table 11, below. All members of the negative control were dead 8 days after the fungal infection, while all of the groups administered with Compound 50 were dead 18 days after the fungal infection.

HepG2 cells [9] = experiment: Assay for cytotoxicity in human hepatocytes (Neutral red); details: overnight incubation, absorbance at 540 nm, triplicate, compound concentration not given
HepG2 cells [10] = test system: HepG2 cells
Protocol: HepG2 cells were aliquoted at a population of 5×10^4 counts per well of 96-well plates and grown at 37° C. in a 5% CO2 incubator for 1 day. The culture medium in each well was replaced with a fresh medium containing the compounds of interest, followed by overnight incubation in the incubator. Following the addition of 100 μl of a 100 μg/ml Neutral red solution into each well, the cells were stained for 3 hours in the incubator and fixed in 1% formaldehyde with 1% CaCl2. The cells were destained in 1% glacial acetic acid plus 50% ethanol, followed by measurement for absorbance at 540 nm. Cytotoxicity was expressed as percentages of optical density relative to that of the control, treated with none of the compounds.

[11] = RPMI 1640, growth read after 24 hours
[12] = RPMI 1640, growth read after 48 hours

Row | Compound | acute toxicity: toxic syndromes observed (Assay for acute toxicity) | % Survival on Day 21 [8] [%] | MIC90 [1] [µg/mL] | MIC90 [2] [µg/mL] | MIC90 [3] [µg/mL] | MIC90 (Candida krusei ATCC 6258) [µg/mL] | MIC90 [4] [µg/mL] | MIC90 [5] [µg/mL] | MIC90 [6] [µg/mL] | MIC90 [7] [µg/mL] | Cytotoxicity (percentages of optical density relative to that of the control) (HepG2 cells [10]) [%] | also measured
1 | C[C@@H](n1cc2cc(Br)ccc2n1)[C@](O)(Cn1cncn1)c1ccc(F)cc1F [Example 60] | no toxic syndromes | 10 |  |  |  |  |  |  |  |  |  | MIC90 (concentration at which 90% of the fungi were inhibited compared to the negative control) [1]: 0.5 µg/mL; MIC90 (concentration at which 90% of the fungi were inhibited compared to the negative control) [2, 11]: 2 µg/mL; MIC90 (concentration at which 90% of the fungi were inhibited compared to the negative control) [3, 11]: ≦0.015 μg/ml; MIC90 (concentration at which 90% of the fungi were inhibited compared to the negative control) (Candida krusei ATCC 6258; [11]): 1 µg/mL; MIC90 (concentration at which 90% of the fungi were inhibited compared to the negative control) [4, 12]: 1 µg/mL; MIC90 (concentration at which 90% of the fungi were inhibited compared to the negative control) ([5]; RPMI 1640, duplicate): 1 µg/mL; MIC90 (concentration at which 90% of the fungi were inhibited compared to the negative control) [6, 12]: 1 µg/mL; MIC90 (concentration at which 90% of the fungi were inhibited compared to the negative control) [7]: 1 µg/mL
2 | C[C@@H](N1Cc2cc(NCc3ccc(Cl)cc3)ccc2N1)[C@](O)(Cn1cncn1)c1ccc(F)cc1F [Example 245, (2R,3R)-3-(5-(4-chlorobenzylamino)-1H-indazol-2-yl)-2-(2,4-difluorophenyl)-1-(1H-1,2,4-triazol-1-yl)butan-2-ol] | no toxic syndromes | 40 | 0.5 (≈ 0.979 µM) | 4 (≈ 7.83 µM) | ≤ 0.015 | 0.5 (≈ 0.979 µM) | 2 (≈ 3.91 µM) | 0.125 (≈ 0.245 µM) | 0.5 (≈ 0.979 µM) | 0.5 (≈ 0.979 µM) |  | Cytotoxicity (percentages of optical density relative to that of the control) (HepG2 cells [9]): 9.9%
3 | C[C@@H](n1nc(Cl)c2ccccc21)[C@](O)(Cn1cncn1)c1ccc(F)cc1F [Example 52] |  |  |  |  |  |  |  |  |  |  | 5.6 | 
4 | C[C@@H](n1ncc2cc(NCc3cccc(Cl)c3)ccc21)[C@](O)(Cn1cncn1)c1ccc(F)cc1F [Example 240] |  |  |  |  |  |  |  |  |  |  | 5.2 | 
5 | Cc1c2c(Cl)cccc2nn1[C@H](C)[C@](O)(Cn1cncn1)c1ccc(F)cc1F [Example 68] |  |  |  |  |  |  |  |  |  |  | 2.4 | 
6 | C[C@@H](N1NCc2ccccc21)[C@](O)(Cn1cncn1)c1ccc(F)cc1F [Example 50, (2R,3R)-2-(2,4-Difluorophenyl)-3-(2H-indazol-1-yl)-1-(1H-1,2,4-triazol-1-yl)butan-2-ol] | no toxic syndromes | 0 | 4 (≈ 10.8 µM) | 2 (≈ 5.39 µM) | ≤ 0.015 | 0.5 (≈ 1.35 µM) | 8 (≈ 21.5 µM) | 0.063 (≈ 0.17 µM) | 4 (≈ 10.8 µM) | 2 (≈ 5.39 µM) |  | Cytotoxicity (percentages of optical density relative to that of the control) (HepG2 cells [9]): 5.2%; time after the fungal infection at which all mice of the group were dead ([8]; 20 mg/kg orally once a day for seven days): 18 days
7 | Cc1nn([C@H](C)[C@](O)(Cn2cncn2)c2ccc(F)cc2F)c2cccc(Cl)c12 [Example 69] |  |  |  |  |  |  |  |  |  |  | 1.6 | 
8 | C[C@@H](n1ncc2cc([N+](=O)[O-])ccc21)[C@](O)(Cn1cncn1)c1ccc(F)cc1F [Example 234, (2R,3R)-2-(2,4-difluorophenyl)-3-(5-nitro-1H-indazol-1-yl)-1-(1H-1,2,4-triazol-1-yl)butan-2-ol] | no toxic syndromes | 40 | 2 (≈ 4.83 µM) | 4 (≈ 9.65 µM) | ≤ 0.015 | 0.5 (≈ 1.21 µM) | 2 (≈ 4.83 µM) | 0.125 (≈ 0.302 µM) | 2 (≈ 4.83 µM) | 1 (≈ 2.41 µM) |  | 
